Experimental data: patent US11672802B2, “Induction of immune tolerance by using methotrexate” (Genzyme Corporation, priority 2011, dated 2023)

What was measured:
[1] = test system: circulating and splenic T cells and B cells; assay: Flow cytometry of alemtuzumab-mediated lymphocyte depletion in blood and spleen; assay type: in vivo, huCD52 Tg mice
Protocol: For splenocyte and lymph node cell preparations single-cell suspensions were generated from harvested mouse spleens or inguinal and mesenteric lymph nodes by homogenization between frosted glass slides into PBS containing 2% FCS. For splenocyte preparations, red blood cells were lysed by 1-2 minute incubation with a red blood cell lysis solution (BD Biosciences, San Diego, Calif.). Blood was isolated by retro-orbital bleeding and cell preparations were performed by lysing red blood cells with red blood cell lysing solution (BD Biosciences) for 20-30 minutes. For all tissue preparations, live cells were enumerated using the ViCell automated counter (Beckman Coulter, Fullerton, Calif.). Following isolation, all cell preparations were washed with PBS/2% FCS prior to use in the assays described below.
For evaluation of cell populations within different tissues, single cell suspensions of the tissues were incubated with fluorochrome-conjugated antibodies that included anti-mouse CD4, CD8, CD25, CD44, CD62L (all antibodies from BD Biosciences or eBioscience, San Diego, Calif.). Intracellular Foxp3 expression analysis was performed according to the anti-Foxp3 manufacturer's protocol (eBiosciences, San Diego, Calif.). Following incubation with the antibodies, cells were washed and analyzed by flow cytometry (FACSCanto, BD Biosciences and FCS Express software, De Novo Software, Los Angeles, Calif.).

[2] = test system: anti-rhGAA antibody titers; assay: Adoptive transfer of splenic B cells from tolerized mice; assay type: in vivo, C57BL/6 mice; conditions: donors treated with Myozyme and a single cycle of methotrexate
Protocol: C57BL/6 mice were obtained from Jackson Laboratories and were housed under specific pathogen free conditions. Control mice were given a single intravenous injection of rhGAA at 20 mg/kg. Tolerized mice were given a single intravenous injection of rhGAA at 20 mg/kg, in addition to three daily consecutive methotrexate intraperitoneal injections of 0.5 mg. Spleens were harvested on day six after the initial rhGAA injection, from both donor groups, and processed into pooled single cell suspensions. Cells were washed and filtered through a […]. Cells were then enriched for B cells using a StemCell Technologies RoboSep cell separation system, and resuspended to allow for a 200 μl intravenous injection. Tolerized and non-tolerized recipient groups received either a high cell 10×10^6 or a low cell 5×10^6 concentration via intravenous injections. Control groups were given rhGAA only, or rhGAA and methotrexate (single cycle of three consecutive daily MTX injections). All groups received weekly intravenous rhGAA 20 mg/kg injections, and were retro-orbitally bled biweekly for 16 weeks, into BD Vacutainer serum separator tubes. Serum was removed and stored below −20° C. until used for ELISA. Anti-rhGAA antibody titers were determined using ELISA, read on a SpectraMax M2, and calculated using Softmax to extrapolate titer value. […]

## CN(Cc1cnc2nc(N)nc(N)c2n1)c1ccc(C(=O)N[C@@H](CCC(=O)O)C(=O)O)cc1 [methotrexate, Methotrexate]
[1]; alemtuzumab alone, or with methotrexate 5 mg/kg daily for first three days
  depletion of circulating T cells by fifth monthly dose of alemtuzumab: restored the ability of alemtuzumab to deplete T cells
[1]; methotrexate-treated animals, one day following fifth alemtuzumab treatment
  splenic T cell populations: significantly depleted
[1]; mice treated with alemtuzumab and methotrexate, after fifth alemtuzumab dose
  splenic B cell populations, except follicular B cells: not significantly depleted
[1]; spleen, two days following last day of methotrexate treatment
  effect on marginal zone B cells with alemtuzumab: may enhance the depletion of marginal zone B cells
[1]; with methotrexate 5 mg/kg daily for first three days
  depletion of circulating B cells by fifth monthly dose of alemtuzumab: enhance the depletion of B cells
[2]
  transfer of immune tolerance to Myozyme in naive hosts by total splenic B cells: could transfer immune tolerance
